Test results from ChEMBL document CHEMBL3885881, “DrugMatrix”.

Organism: Rattus norvegicus
Test: DrugMatrix - Regimen: Daily Repeat
Type: toxicity, organism-based, Sprague-Dawley
Parameters: regimen Daily Repeat, gender Male, age 6-8 weeks
Settings: in vivo, po, 75 mg/kg, route oral GAVAGE, dose level High, vehicle .5 % CMC; for ABSOLUTE BASOPHIL / ABSOLUTE EOSINOPHIL / ABSOLUTE LYMPHOCYTE / ABSOLUTE MONOCYTE / ABSOLUTE SEGMENTED NEUTROPHIL / BASOPHIL / EOSINOPHIL / ERYTHROCYTE COUNT / HEMATOCRIT / HEMOGLOBIN / LEUKOCYTE COUNT / LYMPHOCYTE / MEAN CORPUSCULAR HEMOGLOBIN / MEAN CORPUSCULAR HEMOGLOBIN CONCENTRATION / MEAN CORPUSCULAR VOLUME / MONOCYTE / NEUTROPHIL / NUCLEATED RED BLOOD CELLS / PLATELET COUNT: tissue Blood
[1] = 72 h, tissue Plasma, time 3 day
[2] = 120 h, tissue Plasma, time 5 day

Compound: COc1ccc(C2CNC(=O)C2)cc1OC1CCCC1 (stereo not drawn) [ROLIPRAM]
- ABSOLUTE BASOPHIL (72 h, time 3 day): 0 CELLS/uL
- ABSOLUTE EOSINOPHIL (72 h, time 3 day): 174 CELLS/uL
- ABSOLUTE LYMPHOCYTE (72 h, time 3 day): 10500 CELLS/uL
- ABSOLUTE MONOCYTE (72 h, time 3 day): 432 CELLS/uL
- ABSOLUTE SEGMENTED NEUTROPHIL (72 h, time 3 day): 3427.33 CELLS/uL
- BASOPHIL (72 h, time 3 day): 0%
- EOSINOPHIL (72 h, time 3 day): 1%
- ERYTHROCYTE COUNT (72 h, time 3 day): 6.02 x10E6/uL
- HEMATOCRIT (72 h, time 3 day): 37.7%
- HEMOGLOBIN (72 h, time 3 day): 13.93 G/DL
- LEUKOCYTE COUNT (72 h, time 3 day): 14.53 x10E3/uL
- LYMPHOCYTE (72 h, time 3 day): 73.33%
- MEAN CORPUSCULAR HEMOGLOBIN (72 h, time 3 day): 23.2 pg
- MEAN CORPUSCULAR HEMOGLOBIN CONCENTRATION (72 h, time 3 day): 36.97 G/DL
- MEAN CORPUSCULAR VOLUME (72 h, time 3 day): 62.73 fL
- MONOCYTE (72 h, time 3 day): 2.67%
- NEUTROPHIL (72 h, time 3 day): 23%
- NUCLEATED RED BLOOD CELLS (72 h, time 3 day): 0 /100WBC
- PLATELET COUNT (72 h, time 3 day): 1088.33 x10E3/uL
- ALANINE AMINOTRANSFERASE [1]: 60.33 u/L
- ALBUMIN [1]: 4.3 G/DL
- ALKALINE PHOSPHATASE [1]: 331.67 u/L
- ASPARTATE AMINOTRANSFERASE [1]: 73.33 u/L
- BLOOD UREA NITROGEN [1]: 14.67 mg/dL
- CARBON DIOXIDE [1]: 28 mmol/L
- CHLORIDE [1]: 104 MEQ/L
- CHOLESTEROL [1]: 63.33 mg/dL
- CREATININE [1]: 0.17 mg/dL
- GLUCOSE [1]: 170.67 mg/dL
- LACTATE DEHYDROGENASE [1]: 116 u/L
- LIPASE [1]: 10 u/L
- PHOSPHORUS [1]: 11 mg/dL
- POTASSIUM [1]: 6.1 MEQ/L
- SODIUM [1]: 147.83 MEQ/L
- TOTAL BILIRUBIN [1]: 0.1 mg/dL
- TOTAL PROTEIN [1]: 6.23 G/DL
- URIC ACID [1]: 1.73 mg/dL
- ABSOLUTE BASOPHIL (120 h, time 5 day): 0 CELLS/uL
- ABSOLUTE EOSINOPHIL (120 h, time 5 day): 142.67 CELLS/uL
- ABSOLUTE LYMPHOCYTE (120 h, time 5 day): 8076.67 CELLS/uL
- ABSOLUTE MONOCYTE (120 h, time 5 day): 387 CELLS/uL
- ABSOLUTE SEGMENTED NEUTROPHIL (120 h, time 5 day): 1493.67 CELLS/uL
- BASOPHIL (120 h, time 5 day): 0%
- EOSINOPHIL (120 h, time 5 day): 1.33%
- ERYTHROCYTE COUNT (120 h, time 5 day): 6.66 x10E6/uL
- HEMATOCRIT (120 h, time 5 day): 40%
- HEMOGLOBIN (120 h, time 5 day): 14.37 G/DL
- LEUKOCYTE COUNT (120 h, time 5 day): 10.1 x10E3/uL
- LYMPHOCYTE (120 h, time 5 day): 81.33%
- MEAN CORPUSCULAR HEMOGLOBIN (120 h, time 5 day): 21.6 pg
- MEAN CORPUSCULAR HEMOGLOBIN CONCENTRATION (120 h, time 5 day): 35.93 G/DL
- MEAN CORPUSCULAR VOLUME (120 h, time 5 day): 60.07 fL
- MONOCYTE (120 h, time 5 day): 3.67%
- NEUTROPHIL (120 h, time 5 day): 13.67%
- NUCLEATED RED BLOOD CELLS (120 h, time 5 day): 0 /100WBC
- PLATELET COUNT (120 h, time 5 day): 1039 x10E3/uL
- ALANINE AMINOTRANSFERASE [2]: 69.67 u/L
- ALBUMIN [2]: 4.5 G/DL
- ALKALINE PHOSPHATASE [2]: 284.67 u/L
- ASPARTATE AMINOTRANSFERASE [2]: 99.67 u/L
- BLOOD UREA NITROGEN [2]: 15.33 mg/dL
- CARBON DIOXIDE [2]: 34.33 mmol/L
- CHLORIDE [2]: 101.67 MEQ/L
- CHOLESTEROL [2]: 82.67 mg/dL
- CREATININE [2]: 0.18 mg/dL
- GLUCOSE [2]: 127 mg/dL
- LACTATE DEHYDROGENASE [2]: 138.67 u/L
- LIPASE [2]: 8.67 u/L
- PHOSPHORUS [2]: 9.93 mg/dL
- POTASSIUM [2]: 6.21 MEQ/L
- SODIUM [2]: 149.7 MEQ/L
- TOTAL BILIRUBIN [2]: 0.13 mg/dL
- TOTAL PROTEIN [2]: 6.8 G/DL
